In BindingDB's records for doi:10.1021/jm030146j (Merck Research Laboratories, 2003):

What follows are compounds tested against Integrin alpha-IIb/beta-3 (Homo sapiens, UniProt P08514+P05106) (assay: Inhibition of human alphaIIb-beta3 integrin in platelet aggregation assay).
Sequence of Integrin alpha-IIb/beta-3 (P05106 27-788 limits assumed): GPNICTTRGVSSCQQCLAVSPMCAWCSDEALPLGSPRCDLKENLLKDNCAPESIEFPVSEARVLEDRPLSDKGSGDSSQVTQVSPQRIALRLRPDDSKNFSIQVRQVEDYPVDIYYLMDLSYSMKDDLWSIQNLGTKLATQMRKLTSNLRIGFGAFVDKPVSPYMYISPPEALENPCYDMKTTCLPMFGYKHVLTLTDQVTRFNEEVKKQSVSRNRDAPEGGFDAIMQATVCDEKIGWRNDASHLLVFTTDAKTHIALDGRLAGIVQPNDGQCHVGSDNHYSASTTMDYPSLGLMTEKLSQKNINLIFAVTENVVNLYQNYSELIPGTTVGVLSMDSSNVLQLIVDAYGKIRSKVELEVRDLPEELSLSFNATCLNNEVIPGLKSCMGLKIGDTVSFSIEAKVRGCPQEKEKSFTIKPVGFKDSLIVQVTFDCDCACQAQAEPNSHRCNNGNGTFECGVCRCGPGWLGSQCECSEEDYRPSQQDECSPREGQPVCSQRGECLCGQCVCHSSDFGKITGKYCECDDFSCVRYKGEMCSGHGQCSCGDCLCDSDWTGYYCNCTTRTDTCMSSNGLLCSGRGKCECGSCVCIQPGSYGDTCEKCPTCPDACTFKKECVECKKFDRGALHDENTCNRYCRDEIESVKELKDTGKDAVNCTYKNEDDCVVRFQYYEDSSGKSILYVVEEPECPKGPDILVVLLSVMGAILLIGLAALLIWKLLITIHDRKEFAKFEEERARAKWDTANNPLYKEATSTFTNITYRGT
Sequence of Integrin alpha-IIb/beta-3 (P08514 32-887 limits assumed): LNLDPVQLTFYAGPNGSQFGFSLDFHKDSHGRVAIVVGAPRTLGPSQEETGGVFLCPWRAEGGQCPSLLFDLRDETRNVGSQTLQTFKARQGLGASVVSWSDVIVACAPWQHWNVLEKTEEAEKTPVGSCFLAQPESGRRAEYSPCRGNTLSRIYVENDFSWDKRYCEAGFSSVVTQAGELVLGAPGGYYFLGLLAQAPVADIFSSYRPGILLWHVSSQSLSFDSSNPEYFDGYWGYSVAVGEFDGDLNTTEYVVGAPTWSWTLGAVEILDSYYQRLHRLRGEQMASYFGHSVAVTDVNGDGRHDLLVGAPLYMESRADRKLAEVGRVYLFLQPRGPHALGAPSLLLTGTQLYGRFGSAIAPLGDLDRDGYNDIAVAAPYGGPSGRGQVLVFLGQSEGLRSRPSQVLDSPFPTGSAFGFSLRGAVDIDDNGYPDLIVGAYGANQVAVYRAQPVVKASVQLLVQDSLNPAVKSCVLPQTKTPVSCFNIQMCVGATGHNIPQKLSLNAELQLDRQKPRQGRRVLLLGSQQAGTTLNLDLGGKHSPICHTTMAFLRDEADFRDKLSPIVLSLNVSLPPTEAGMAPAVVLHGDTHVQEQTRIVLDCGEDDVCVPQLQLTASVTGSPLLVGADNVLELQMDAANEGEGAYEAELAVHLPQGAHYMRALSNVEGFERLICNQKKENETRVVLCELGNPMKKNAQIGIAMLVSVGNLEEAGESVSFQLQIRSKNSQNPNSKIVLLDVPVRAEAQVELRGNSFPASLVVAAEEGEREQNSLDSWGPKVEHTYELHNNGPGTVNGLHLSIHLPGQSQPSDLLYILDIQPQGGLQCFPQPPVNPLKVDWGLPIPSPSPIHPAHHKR
Sequence of Integrin alpha-IIb/beta-3 (P08514 891-1039 limits assumed): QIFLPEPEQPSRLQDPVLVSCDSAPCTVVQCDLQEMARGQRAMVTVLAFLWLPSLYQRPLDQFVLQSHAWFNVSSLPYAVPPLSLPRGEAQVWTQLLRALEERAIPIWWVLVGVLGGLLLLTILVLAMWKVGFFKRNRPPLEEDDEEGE

Compared with `CC1(C)[C@@H]2CC[C@@]1(CS(=O)(=O)N[C@@H](CNC(=O)c1ccc(CCc3ccc4c(n3)NCCC4)cc1)C(=O)O)C(=O)C2` [2-((S)-(1R,7S)-7,7-Dimethyl-2-oxo-bicyclo[2.2.1]hept-1-ylmethanesulfonylamino)-3-{4-[2-(5,6,7,8-tetrahydro-[1,8]naphthyridin-2-yl)-ethyl]-benzoylamino}-propionic acid], `O=C(O)C[C@H](NC(=O)CN1CC[C@H](CCc2ccc3c(n2)NCCC3)C1=O)c1cccnc1` [3-(2-{(S)-2-Oxo-3-[2-(5,6,7,8-tetrahydro-[1,8]naphthyridin-2-yl)-ethyl]-pyrrolidin-1-yl}-acetylamino)-3-(S)-pyridin-3-yl-propionic acid] is higher in IC50: 157 nM for the first, over 10000 nM for the second.

First: O=C(NC[C@H](NS(=O)(=O)c1ccccc1)C(=O)O)c1ccc(N2CCNCC2)cc1 [2-((S)-Benzenesulfonylamino)-3-(4-piperazin-1-yl-benzoylamino)-propionic acid]
Second: O=C(O)CC(NC(=O)CCCCc1ccc2c(n1)NCCC2)c1cncnc1 (stereo not given) [3-Pyrimidin-5-yl-3-(5-5,6,7,8-tetrahydro-[1,8]naphthyridin-2-yl-pentanoylamino)-propionic acid]
The IC50 of the first is lower: 16 nM for the first, over 10000 nM for the second. The first is the more potent here.

`CNc1cccc(CCOc2ccc3c(c2)CN(CC(F)(F)F)C(=O)[C@H](CC(=O)O)C3)n1` [[(S)-8-[2-(6-Methylamino-pyridin-2-yl)-ethoxy]-3-oxo-2-(2,2,2-trifluoro-ethyl)-2,3,4,5-tetrahydro-1H-benzo[c]azepin-4-yl]-acetic acid] gave an IC50 of over 10000 nM.
